ChEMBL document CHEMBL6177993, “De Novo 3-(Phenylcarbamoyl) Benzoate Analogues: Efficacy against Multidrug-Resistant S. aureus and Elucidation of the Biodistribution Profile” (J Med Chem, 2025)
Values after ≈ are worked out from the molar mass of the structure shown. Active and inactive are the calls of the source. The calls are words filed in the database; no cut-off is given here.

Legend:
Bacillus subtilis = assay: Antibacterial activity against Bacillus subtilis IITKSM1 assessed as reduction in bacterial growth measured after 18 to 24 hrs by broth microdilution method; assay type: functional; settings: time 18-24 hrs
Staphylococcus aureus [1] = assay: Antibacterial activity against Staphylococcus aureus ATCC 29213 assessed as reduction in bacterial growth measured after 18 to 24 hrs by broth microdilution method; assay type: functional; settings: time 18-24 hrs
Klebsiella pneumoniae = assay: Antibacterial activity against Klebsiella pneumoniae BAA 1705 assessed as reduction in bacterial growth measured after 18 to 24 hrs by broth microdilution method; assay type: functional; settings: time 18-24 hrs
Escherichia coli = assay: Antibacterial activity against Escherichia coli ATCC 25922 assessed as reduction in bacterial growth measured after 18 to 24 hrs by broth microdilution method; assay type: functional; settings: time 18-24 hrs
[2] = Solubility of the compound in distilled water; assay type: physicochemical; settings: buffer
Staphylococcus aureus [3] = assay: Antibacterial activity against methicillin-sensitive Staphylococcus aureus ATCC 29213 assessed as reduction in bacterial growth measured after 18 to 24 hrs by broth microdilution method; assay type: functional; settings: time 18-24 hrs
Staphylococcus aureus [4] = assay: Antibacterial activity against methicillin-resistant Staphylococcus aureus NRS 119 assessed as reduction in bacterial growth measured after 18 to 24 hrs by broth microdilution method; assay type: functional; settings: time 18-24 hrs
Staphylococcus aureus [5] = assay: Antibacterial activity against methicillin-resistant Staphylococcus aureus NRS 129 assessed as reduction in bacterial growth measured after 18 to 24 hrs by broth microdilution method; assay type: functional; settings: time 18-24 hrs
Staphylococcus aureus [6] = assay: Antibacterial activity against methicillin-resistant Staphylococcus aureus NRS 191 assessed as reduction in bacterial growth measured after 18 to 24 hrs by broth microdilution method; assay type: functional; settings: time 18-24 hrs
Staphylococcus aureus [7] = assay: Antibacterial activity against methicillin-resistant Staphylococcus aureus NRS 192 assessed as reduction in bacterial growth measured after 18 to 24 hrs by broth microdilution method; assay type: functional; settings: time 18-24 hrs
Staphylococcus aureus [8] = assay: Antibacterial activity against methicillin-resistant Staphylococcus aureus NRS 193 assessed as reduction in bacterial growth measured after 18 to 24 hrs by broth microdilution method; assay type: functional; settings: time 18-24 hrs
Staphylococcus aureus [9] = assay: Antibacterial activity against methicillin-resistant Staphylococcus aureus NRS 194 assessed as reduction in bacterial growth measured after 18 to 24 hrs by broth microdilution method; assay type: functional; settings: time 18-24 hrs
Staphylococcus aureus [10] = assay: Antibacterial activity against methicillin-resistant Staphylococcus aureus NRS 198 assessed as reduction in bacterial growth measured after 18 to 24 hrs by broth microdilution method; assay type: functional; settings: time 18-24 hrs
Staphylococcus aureus [11] = assay: Antibacterial activity against vacomycin-resistant Staphylococcus aureus VRS 1 assessed as reduction in bacterial growth measured after 18 to 24 hrs by broth microdilution method; assay type: functional; settings: time 18-24 hrs
Staphylococcus aureus [12] = assay: Antibacterial activity against vacomycin-resistant Staphylococcus aureus VRS 12 assessed as reduction in bacterial growth measured after 18 to 24 hrs by broth microdilution method; assay type: functional; settings: time 18-24 hrs
[13] = Hemolytic activity in human Red blood cell at 32 ug/ml measured after 1 hrs by spectrophotometric analysis relative to control; assay type: toxicity, cell-based, Erythrocyte; settings: red blood cells, at 32 µg/mL, read-out: Activity
Staphylococcus aureus [14] = assay: Inhibition of biofilm in Staphylococcus aureus ATCC 29213 at 1 times MIC measured after 12 hrs by crystal violet staining based analysis relative to control; assay type: functional
Staphylococcus aureus [15] = assay: Inhibition of biofilm in Staphylococcus aureus ATCC 29213 at 0.5 times MIC measured after 12 hrs by crystal violet staining based analysis relative to control; assay type: functional
Staphylococcus aureus [16] = assay: Inhibition of biofilm in Staphylococcus aureus ATCC 29213 at 1 ug/ml measured after 12 hrs by crystal violet staining based analysis; assay type: functional, organism-based; settings: dose 1.0 µg/ml
Staphylococcus aureus [17] = assay: Antibiofilm activity in Staphylococcus aureus ATCC 29213 assessed as disruption of preformed biofilm at 1 times MIC measured after 24 hrs by crystal violet staining based assay relative to control; assay type: functional
Staphylococcus aureus [18] = assay: Antibiofilm activity in Staphylococcus aureus ATCC 29213 assessed as disruption of preformed biofilm at 5 times MIC measured after 24 hrs by crystal violet staining based assay relative to control; assay type: functional
Staphylococcus aureus [19] = assay: Antibiofilm activity in Staphylococcus aureus ATCC 29213 assessed as disruption of preformed biofilm at 10 times MIC measured after 24 hrs by crystal violet staining based assay relative to control; assay type: functional
Staphylococcus aureus [20] = assay: Antibiofilm activity in Staphylococcus aureus ATCC 29213 assessed as disruption of preformed biofilm at 20 times MIC measured after 24 hrs by crystal violet staining based assay relative to control; assay type: functional
Staphylococcus aureus [21] = assay: Antibacterial activity against Staphylococcus aureus ATCC 29213 measured after 20 passages; assay type: functional, organism-based
Cell membrane [22] = assay: Induction of cytoplasmic membrane depolarization in Staphylococcus aureus ATCC 29213 assessed as fold increase in fluorescence intensity at 10 times MIC measured after 30 min by DiSC3-5 dye based fluorescence method; assay type: subcellular
Cell membrane [23] = assay: Disruption of cell membrane in Staphylococcus aureus ATCC 29213 assessed as increase in red fluorescence at 5 to 10 times MIC measured after 4 hrs by DAPI and PI staining based fluorescence microscopic analysis
Staphylococcus aureus [24] = assay: Antibacterial activity against Staphylococcus aureus ATCC 29213 infected in female BALB/c mouse skin infection model assessed as appearance of smooth dorsal skin at 10 times MIC pre-infected with bacteria followed by compound addition and measured after 24 hrs; assay type: functional, organism-based
Staphylococcus aureus [25] = assay: Antibacterial activity against Staphylococcus aureus ATCC 29213 infected in female BALB/c mouse skin infection model assessed as reduction in skin lesions at 10 times MIC pre-infected with bacteria followed by compound addition and measured after 24 hrs; assay type: functional, organism-based
Staphylococcus aureus [26] = assay: Antibacterial activity against Staphylococcus aureus ATCC 29213 infected in female BALB/c mouse skin infection model assessed as reduction in number of bacterial cells in skin at 10 times MIC pre-infected with bacteria followed by compound addition and measured after 24 hrs; assay type: functional, organism-based
Staphylococcus aureus [27] = assay: Antibacterial activity against Staphylococcus aureus ATCC 29213 infected in female BALB/c mouse skin infection model assessed as reduction in bacterial load at 10 times MIC pre-infected with bacteria followed by compound addition and measured after 24 hrs relative to control; assay type: functional; design: scale not given: the % may be the effect or the level left
Staphylococcus aureus [28] = assay: Antibacterial activity against Staphylococcus aureus ATCC 29213 infected in female BALB/c mouse skin infection model assessed as log reduction in bacterial load at 10 times MIC pre-infected with bacteria followed by compound addition and measured after 24 hrs; assay type: functional
[29] = Toxicity in female BALB/c mouse assessed as effect on body weight measured after 24 hrs; settings: in vivo
[30] = Toxicity in female BALB/c mouse assessed as effect on heart measured after 24 hrs by H and E staining based analysis; assay type: tissue-based; settings: in vivo
[31] = Toxicity in female BALB/c mouse assessed as effect on spleen measured after 24 hrs by H and E staining based analysis; assay type: tissue-based; settings: in vivo
[32] = Toxicity in female BALB/c mouse assessed as effect on lung measured after 24 hrs by H and E staining based analysis; assay type: tissue-based; settings: in vivo
[33] = Drug distribution in female BALB/c mouse heart measured after 24 hrs; assay type: ADME, tissue-based; settings: in vivo
[34] = Drug distribution in female BALB/c mouse skin measured after 24 hrs; assay type: ADME, tissue-based, Skin of body; settings: in vivo
[35] = Drug distribution in female BALB/c mouse spleen measured after 24 hrs; assay type: ADME, tissue-based; settings: in vivo
[36] = Drug distribution in female BALB/c mouse lung measured after 24 hrs; assay type: ADME, tissue-based; settings: in vivo
[37] = Drug distribution in female BALB/c mouse liver measured after 24 hrs; assay type: ADME, tissue-based; settings: in vivo
[38] = Drug distribution in female BALB/c mouse kidney measured after 24 hrs; assay type: ADME, tissue-based; settings: in vivo

O=C(O)c1cccc(C(=O)Nc2c(C(c3ccc(F)cc3)c3ccc(F)cc3)cc(Cl)cc2C(c2ccc(F)cc2)c2ccc(F)cc2)c1
MIC (Bacillus subtilis): 1 µg/mL (≈ 1.47 µM) | MIC (Staphylococcus aureus [1]): 1 µg/mL (≈ 1.47 µM) | MIC (Klebsiella pneumoniae): > 64 µg/mL | MIC (Escherichia coli): > 64 µg/mL | solubility [2]: Insoluble | MIC (Staphylococcus aureus [3]): 2 µg/mL (≈ 2.94 µM) | MIC (Staphylococcus aureus [4]): 2 µg/mL (≈ 2.94 µM) | MIC (Staphylococcus aureus [5]): 2 µg/mL (≈ 2.94 µM) | MIC (Staphylococcus aureus [6]): 2 µg/mL (≈ 2.94 µM) | MIC (Staphylococcus aureus [7]): 2 µg/mL (≈ 2.94 µM) | MIC (Staphylococcus aureus [8]): 2 µg/mL (≈ 2.94 µM) | MIC (Staphylococcus aureus [9]): 2 µg/mL (≈ 2.94 µM) | MIC (Staphylococcus aureus [10]): 2 µg/mL (≈ 2.94 µM) | MIC (Staphylococcus aureus [11]): 2 µg/mL (≈ 2.94 µM) | MIC (Staphylococcus aureus [12]): 2 µg/mL (≈ 2.94 µM) | hemolysis at 1 h, 32 ug/ml [13]: 70% | inhibition (INH) (Staphylococcus aureus [14]): 91% | inhibition (INH) (Staphylococcus aureus [15]): >50% | inhibition (Staphylococcus aureus [16]): Active | Activity (Staphylococcus aureus [17]): 7.29% | Activity (Staphylococcus aureus [18]): 7.1% | Activity (Staphylococcus aureus [19]): 11.84% | Activity (Staphylococcus aureus [20]): 18.42% | Activity (Staphylococcus aureus [21]): Active | fold change (FC) (Cell membrane [22]): 4 | Activity (Cell membrane [23]): Active | Activity (Staphylococcus aureus [24]): Active | Activity (Staphylococcus aureus [25]): Active | Activity (Staphylococcus aureus [26]): Active | Activity (Staphylococcus aureus [27]): ~83% | Activity (Staphylococcus aureus [28]): 0.8 log10CFU/ml | Activity [29]: Non-toxic | Activity [30]: Non-toxic | Activity [31]: Non-toxic | Activity [32]: Non-toxic | Drug uptake [33]: 7.7 nmol/mg | Drug uptake [34]: 5.93 nmol/mg | Drug uptake [35]: 9.01 nmol/mg | Drug uptake [36]: 9.91 nmol/mg | Drug uptake [37]: 3.92 nmol/mg | Drug uptake [38]: 4.02 nmol/mg
